Holding throughout (format): biochemical, E. coli
The test system of one assay is native ribosomes. Nature of the assay: Femtoliter droplet assay, control cell extract with pT7_oSD_or1_LacZ reporter. Particulars: 100 µM spectinomycin, 5 nM pT7_oSD_or1_LacZ reporter. As to the method: A mixed oil consisting of light mineral oil (Sigma-Aldrich Corporation, St. Louis, MO, USA), 4.5% sorbitan monooleate (Nacalai Tesque), and 0.5% Triton® X-100 (Nacalai Tesque) was provided. The solution after the second reaction and the mixed oil were mixed and a microtube (Maruemu Corporation, Osaka, Japan) was tapped 20 times to obtain an emulsion. The resulting emulsion was incubated at 37°C for 2 hours to 17 hours, and bright field and fluorescence images of the droplets were acquired over time using a confocal fluorescence microscope LSM700 (Carl Zeiss AG, Oberkochen, Germany). The 488 nm laser was focused using an oil-immersion objective lens (Plan-Apochromat 40x/1.4 Oil DIC M27, Carl Zeiss AG) and oil-immersion oil (ImmersolTM518F, Carl Zeiss AG).
Next, a control experiment was performed using a control cell extract containing only native ribosomes and a pT7_oSD_or1_LacZ reporter. The control cell extract was mixed with 5 nM pT7_oSD_or1_LacZ reporter. In this condition, no fluorescence from native ribosomes was detected in the bulk assay (Fig. 10d).

The test system of a further assay is endogenous ribosome. Nature of the assay: Spectinomycin concentration optimisation, sonicated S12 cell extract with pT7_wtSD_LacZ reporter. To be noted: spectinomycin concentration 5 mM. As to the method:
Next, the optimal concentration of spectinomycin was examined. BL21 Star™ (DE3) lacZ::frt was transformed with a plasmid containing rRNA with or without C1192U spectinomycin resistance (SpcR). These bacterial strains were cultured in the presence of 0.1 mM IPTG for 3 hours, and the sonicated S12 cell extract and pT7_wtSD_LacZ reporter were mixed at various spectinomycin concentrations. […] Therefore, in the following experiments, the spectinomycin concentration was set to 5 mM unless otherwise specified.

In assay [1] the target is T1, K43T mutant of 30S r-protein S12 (Escherichia coli, UniProt P0A7S3, K43T).
T1 construct: made in house; host or cells: cell-free transcription/translation in E. coli S150 cell extract (first reaction)
Nature of the assay: Bulk assay of in vitro produced 70S ribosome with S12 K43T mutant (pT7_oSD_or1_LacZ reporter), with streptomycin. Particulars: gene encoding K43T mutant of 30S r-protein S12; in the presence of spectinomycin and streptomycin. As to the method: (§1) For the second reaction, a second reaction solution was prepared which contained 3.6 µL of the cell extract, an antibiotic (200 µM spectinomycin, 20 µg/mL streptomycin, 3 mM clindamycin, or 240 nM thiostrepton), 3 nM of the reporter plasmid, and 1 mM of IPTG. Note that when the reporter plasmid expressed LacZ, the second reaction solution included 66 µM of 5-chloromethylfluorescein di-β-D-galactopyranoside (CMFDG; Invitrogen, Waltham, MA, USA) as a substrate for LacZ. In the second reaction, 15 µL of the second reaction solution was added to and mixed with 15 µL of the solution after the first reaction, and the signal of the reporter was then measured. […] The signal of the reporter was quantified at λex = 485 nm and λem = 535 nm by using a fluorescence microplate reader, Fluoroskan Ascent FL™ (Thermo Fisher Scientific) or Infinite® 200 PRO (TECAN, Mannedorf, Switzerland).
(§2) A gene encoding a K43T mutant of 30S r-protein S12, which mutant confers streptomycin resistance to ribosomes, was used to produce a 70S ribosome with streptomycin resistance. […] In the second reaction, the translational activity of the ribosomal SSU was then detected by a bulk assay using the pT7_oSD_or1_LacZ reporter in the presence of spectinomycin and in the presence or absence of streptomycin.

In assay [2] the target is T2, 30S r-protein S12 K43T mutant (Escherichia coli, UniProt P0A7S3, K43T).
T2 construct: made in house; host or cells: cell-free transcription/translation in E. coli S150 cell extract (first reaction)
Nature of the assay: Bulk assay of in vitro produced SSU with S12 K43T mutant, spectinomycin and streptomycin in the second reaction. Particulars: SSU only; gene encoding 30S r-protein S12 K43T mutant; in the presence of spectinomycin and streptomycin. The protocol: as §1
The in vitro production of ribosomal SSU was specifically performed by the following procedure. […] The fluorescence of the reaction solution was measured by a bulk assay or a femtoliter droplet assay. In the bulk assay, the reporter signal was kinetically measured at λex = 485 nm and λem = 535 nm by using a Fluoroskan Ascent FL™ (Thermo Fisher Scientific) or Infinite® 200 PRO (TECAN) at 37°C for 120 minutes, 720 minutes, or 900 minutes. […]

Assay [3] deals with T3, wild-type 30S r-protein S12 (Escherichia coli, UniProt P0A7S3).
T3 construct: made in house; host or cells: cell-free transcription/translation in E. coli S150 cell extract (first reaction)
Nature of the assay: Bulk assay of in vitro produced 70S ribosome with wild-type S12 (pT7_oSD_or1_LacZ reporter), with streptomycin. Particulars: wild-type 30S r-protein S12 gene; in the presence of spectinomycin and streptomycin. The protocol:
as §1, §2

For assay [4], the system named is LSU formed using 32 different LSU r-protein genes excluding r-protein L11 gene. Nature of the assay: Bulk assay of in vitro formed LSU lacking r-protein L11 (LacZ reporter) in the presence of thiostrepton. Particulars: in the presence of thiostrepton (120 nM, Fig. 5b); LSU formed without r-protein L11 gene. The protocol: as §1
(§3) The in vitro production of ribosomal LSU was specifically performed by the following procedure. […] The fluorescence of the reaction solution was measured by a bulk assay in the same manner as in the case of the SSU.
(§4) Thiostrepton is known to inactivate an LSU by binding to 50S r-protein L11. […] In the second reaction, the translational activity of the ribosomal LSU was then detected by a bulk assay using the pT7PCONS_EpsA20_wtSD_lacZ reporter in the presence or absence of thiostrepton.

Assay [5] has as its system native ribosome (Escherichia coli). Nature of the assay: Bulk assay of native ribosome translational activity (LacZ reporter) with or without thiostrepton in the second reaction. To be noted: in the presence of thiostrepton (120 nM, Fig. 5a); pT7PCONS_EpsA20_wtSD_lacZ reporter. As to the method: as §1, §3, §4

For `CN[C@@H]1[C@H](O)[C@H](NC)[C@H]2O[C@@]3(O)C(=O)C[C@@H](C)O[C@H]3O[C@@H]2[C@H]1O` [spectinomycin], in the assay with native ribosomes, the “fluorescence derived from native ribosomes” value is “fluorescence derived from native ribosomes can be removed”. Further, the “activity of the endogenous ribosome” value with endogenous ribosome is reported as “strongly suppressed”.
As to `[H]/N=C(/N)N[C@H]1[C@H](O)[C@@H](O)[C@H](O[C@@H]2O[C@@H](C)[C@](O)(C=O)[C@H]2O[C@@H]2O[C@@H](CO)[C@H](O)[C@@H](O)[C@@H]2NC)[C@@H](N/C(N)=N\[H])[C@@H]1O` [streptomycin], the “reporter signal (translational activity of the ribosomal SSU)” value in assay [1] is listed as “a signal was detected”; in assay [3], “no signal was detected”. The reporter signal result in assay [2] is “the reporter signal was not affected”.
For the compound `C=C(NC(=O)C(=C)NC(=O)c1csc(C2=N[C@@H]3c4csc(n4)[C@H]4NC(=O)c5csc(n5)[C@H]([C@](C)(O)[C@@H](C)O)NC(=O)[C@H]5CSC(=N5)/C(=C/C)NC(=O)[C@H]([C@@H](C)O)NC(=O)c5csc(n5)[C@]3(CC2)NC(=O)[C@H](C)NC(=O)C(=C)NC(=O)[C@H](C)NC(=O)[C@H]([C@@H](C)CC)N[C@@H]2C=Cc3c([C@H](C)O)cc(nc3[C@H]2O)C(=O)O[C@@H]4C)n1)C(N)=O` [thiostrepton], the LSU signal result in assay [4] is reported as “An LSU signal was detected”. The “signal of LSU (activity of the native ribosome)” value in assay [5] is “the signal of LSU disappeared”.

(Values after patent EP4567115A1, “METHOD FOR PRODUCING RIBOSOME IN CELL-FREE PROTEIN SYNTHESIS SYSTEM” (priority 2022, dated 2024).)
